According to PMC11033320, “Activation of p53 signaling and regression of breast and prostate carcinoma cells by spirooxindole-benzimidazole small molecules” (Frontiers in Pharmacology, 2024):

Tests used:
OVCAR-3 = test: NCI anticancer screening, Ovarian Cancer OVCAR-3; format: cell-based; settings: Homo sapiens; OVCAR-3, 10 μM; read-out: % Growth Inhibition (GI %)
In short: (§1)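 NCI DTP, standard 60-line human tumor screen (organic compounds).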

MOLT-4 = test: NCI anticancer screening, Leukemia MOLT-4; format: cell-based; settings: Homo sapiens; MOLT-4, 10 μM; read-out: % Growth Inhibition (GI %)
In short: as §1

MCF7 = test: NCI anticancer screening, Breast Cancer MCF7; format: cell-based; settings: Homo sapiens; MCF7, 10 μM; read-out: % Growth Inhibition (GI %)
In short: as §1

HCT-116 = test: NCI anticancer screening, Colon Cancer HCT-116; format: cell-based; settings: Homo sapiens; HCT-116, 10 μM; read-out: % Growth Inhibition (GI %)
In short: as §1

SW-620 = test: NCI anticancer screening, Colon Cancer SW-620; format: cell-based; settings: Homo sapiens; SW-620, 10 μM; read-out: % Growth Inhibition (GI %)
In short: as §1

HOP-92 = test: NCI anticancer screening, Non-Small Cell Lung Cancer HOP-92; format: cell-based; settings: Homo sapiens; HOP-92, 10 μM; read-out: % Growth Inhibition (GI %)
In short: as §1

HCC-2998 = test: NCI anticancer screening, Colon Cancer HCC-2998; format: cell-based; settings: Homo sapiens; HCC-2998, 10 μM; read-out: % Growth Inhibition (GI %)
In short: as §1

[1] = MTT cytotoxicity to normal human lung fibroblast Wi-38 cell line; format: cell-based; settings: Wi-38 normal lung fibroblast cells, mean ± SEM, read-out: percentage of Wi-38 viability
CAKI-1 = test: NCI anticancer screening, Renal Cancer CAKI-1; format: cell-based; settings: Homo sapiens; CAKI-1, 10 μM; read-out: % Growth Inhibition (GI %)
In short: as §1

TK-10 = test: NCI anticancer screening, Renal Cancer TK-10; format: cell-based; settings: Homo sapiens; TK-10, 10 μM; read-out: % Growth Inhibition (GI %)
In short: as §1

U251 = test: NCI anticancer screening, CNS Cancer U251; format: cell-based; settings: Homo sapiens, U-251; U251, 10 μM; read-out: % Growth Inhibition (GI %)
In short: as §1

SK-MEL-5 = test: NCI anticancer screening, Melanoma SK-MEL-5; format: cell-based; settings: Homo sapiens; SK-MEL-5, 10 μM; read-out: % Growth Inhibition (GI %)
In short: as §1

ACHN = test: NCI anticancer screening, Renal Cancer ACHN; format: cell-based; settings: Homo sapiens, read-out: % Growth Inhibition (GI %)
In short: as §1

786-0 = test: NCI anticancer screening, Renal Cancer 786-0; format: cell-based; settings: Homo sapiens; 786-0, 10 μM; read-out: % Growth Inhibition (GI %)
In short: as §1

SF-268 = test: NCI anticancer screening, CNS Cancer SF-268; format: cell-based; settings: Homo sapiens; SF-268, 10 μM; read-out: % Growth Inhibition (GI %)
In short: as §1

HS 578T = test: NCI anticancer screening, Breast Cancer HS 578T; format: cell-based; settings: Homo sapiens, read-out: % Growth Inhibition (GI %)
In short: as §1

SN12C = test: NCI anticancer screening, Renal Cancer SN12C; format: cell-based; settings: Homo sapiens, read-out: % Growth Inhibition (GI %)
In short: as §1

MDA-MB-435 = test: NCI anticancer screening, Melanoma MDA-MB-435; format: cell-based; settings: Homo sapiens; MDA-MB-435, 10 μM; read-out: % Growth Inhibition (GI %)
In short: as §1

HCT-15 = test: NCI anticancer screening, Colon Cancer HCT-15; format: cell-based; settings: Homo sapiens; HCT-15, 10 μM; read-out: % Growth Inhibition (GI %)
In short: as §1

HOP-62 = test: NCI anticancer screening, Non-Small Cell Lung Cancer HOP-62; format: cell-based; settings: Homo sapiens; HOP-62, 10 μM; read-out: % Growth Inhibition (GI %)
In short: as §1

MALME-3M = test: NCI anticancer screening, Melanoma MALME-3M; format: cell-based; settings: Homo sapiens, read-out: % Growth Inhibition (GI %)
In short: as §1

UACC-257 = test: NCI anticancer screening, Melanoma UACC-257; format: cell-based; settings: Homo sapiens; UACC-257, 10 μM; read-out: % Growth Inhibition (GI %)
In short: as §1

SNB-75 = test: NCI anticancer screening, CNS Cancer SNB-75; format: cell-based; settings: Homo sapiens; SNB-75, 10 μM; read-out: % Growth Inhibition (GI %)
In short: as §1

SK-MEL-2 = test: NCI anticancer screening, Melanoma SK-MEL-2; format: cell-based; settings: Homo sapiens; SK-MEL-2, 10 μM; read-out: % Growth Inhibition (GI %)
In short: as §1

NCI/ADR-RES = test: NCI anticancer screening, Ovarian Cancer NCI/ADR-RES; format: cell-based; settings: Homo sapiens, read-out: % Growth Inhibition (GI %)
In short: as §1

CCRF-CEM = test: NCI anticancer screening, Leukemia CCRF-CEM; format: cell-based; settings: Homo sapiens, read-out: % Growth Inhibition (GI %)
In short: as §1

A549/ATCC = test: NCI anticancer screening, Non-Small Cell Lung Cancer A549/ATCC; format: cell-based; settings: Homo sapiens, read-out: % Growth Inhibition (GI %)
In short: as §1

HL-60(TB) = test: NCI anticancer screening, Leukemia HL-60(TB); format: cell-based; settings: Homo sapiens, read-out: % Growth Inhibition (GI %)
In short: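 Run at the Developmental Therapeutics Program following its standard screen of sixty human tumour cell lines for organics.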

NCI-H522 = test: NCI anticancer screening, Non-Small Cell Lung Cancer NCI-H522; format: cell-based; settings: Homo sapiens; NCI-H522, 10 μM; read-out: % Growth Inhibition (GI %)
In short: as §1

UO-31 = test: NCI anticancer screening, Renal Cancer UO-31; format: cell-based; settings: Homo sapiens; UO-31, 10 μM; read-out: % Growth Inhibition (GI %)
In short: as §1

MDA-MB-468 = test: NCI anticancer screening, Breast Cancer MDA-MB-468; format: cell-based; settings: Homo sapiens, read-out: % Growth Inhibition (GI %)
In short: as §1

HT29 = test: NCI anticancer screening, Colon Cancer HT29; format: cell-based; settings: Homo sapiens, HT-29; HT29, 10 μM; read-out: % Growth Inhibition (GI %)
In short: as §1

OVCAR-5 = test: NCI anticancer screening, Ovarian Cancer OVCAR-5; format: cell-based; settings: Homo sapiens; OVCAR-5, 10 μM; read-out: % Growth Inhibition (GI %)
In short: as §1

Row | SMILES | inhibition at 10 µM (OVCAR-3) [%] | inhibition at 10 µM (MOLT-4) [%] | inhibition at 10 µM (MCF7) [%] | inhibition at 10 µM (HCT-116) [%] | inhibition at 10 µM (SW-620) [%] | inhibition at 10 µM (HOP-92) [%] | inhibition at 10 µM (HCC-2998) [%] | melting point [°C] | viability at 72 h, 5 µM [1] [%] | inhibition at 10 µM (CAKI-1) [%] | inhibition at 10 µM (TK-10) [%] | inhibition at 10 µM (U251) [%] | inhibition at 10 µM (SK-MEL-5) [%] | inhibition at 10 µM (ACHN) [%] | inhibition at 10 µM (786-0) [%] | inhibition at 10 µM (SF-268) [%] | inhibition at 10 µM (HS 578T) [%] | inhibition at 10 µM (SN12C) [%] | inhibition at 10 µM (MDA-MB-435) [%] | inhibition at 10 µM (HCT-15) [%] | further results
1 | O=C(c1nc2ccccc2[nH]1)[C@H]1[C@H](c2ccc(C(F)(F)F)cc2)C2CSCN2[C@]12C(=O)Nc1ccccc12 (stereo partly drawn) [Compound 6c, (3S,6′R)-6'-(1H-Benzo [d]imidazole-2-carbonyl)-7'-(4-(trifluoromethyl)phenyl)-3′,6′,7′,7a′-tetrahydro-1′H-spiro [indoline-3.5′-pyrrolo [1,2-c]thiazol]-2-one] | 87.7 | 82.7 | 77.7 | 60 | 84.1 | 109 | 99.6 | 185 to 187 | 59.9 ± 2.84 | 78.6 | 120 | 93.2 | 94.2 | 89.6 | 99.4 | 90.2 | 83.9 | 90.7 | 88.3 | 88.9 | inhibition at 10 µM (HOP-62): 89.5%; inhibition at 10 µM (MALME-3M): 94.9%; inhibition at 10 µM (UACC-257): 98.5%; inhibition at 10 µM (SNB-75): 72.9%; inhibition at 10 µM (SK-MEL-2): 108%; inhibition at 10 µM (NCI/ADR-RES): 86%; inhibition at 10 µM (CCRF-CEM): 95%; inhibition at 10 µM (A549/ATCC): 97.1%; inhibition at 10 µM (HL-60(TB)): 108%; inhibition at 10 µM (NCI-H522): 87.7%; inhibition at 10 µM (UO-31): 55.4%; inhibition at 10 µM (MDA-MB-468): 91.6%; inhibition at 10 µM (HT29): 74.7%; inhibition at 10 µM (OVCAR-5): 96.1%
2 | O=C(c1nc2ccccc2[nH]1)[C@H]1[C@H](c2ccc(Cl)cc2)C2CSCN2[C@]12C(=O)Nc1ccccc12 (stereo partly drawn) [Compound 6b, (3S,6′R)-6'-(1H-Benzo [d]imidazole-2-carbonyl)-7'-(4-chlorophenyl)-3′,6′,7′,7a′-tetrahydro-1′H-spiro [indoline-3.5′-pyrrolo [1,2-c]thiazol]-2-one] | 86.4 | 68.9 | 74.7 | 60.5 | 77 | 100 | 92.1 | 210 to 212 | 49.6 ± 1.19 | 68.3 | 121 | 81.2 | 91.6 | 78.2 | 97.6 | 77.5 | 72.1 | 80.7 | 79.9 | 76.6 | inhibition at 10 µM (HOP-62): 91.7%; inhibition at 10 µM (MALME-3M): 89.7%; inhibition at 10 µM (UACC-257): 95.2%; inhibition at 10 µM (SNB-75): 69.1%; inhibition at 10 µM (SK-MEL-2): 110%; inhibition at 10 µM (NCI/ADR-RES): 84.7%; inhibition at 10 µM (CCRF-CEM): 86.3%; inhibition at 10 µM (A549/ATCC): 81.4%; inhibition at 10 µM (HL-60(TB)): 98.3%; inhibition at 10 µM (NCI-H522): 87.9%; inhibition at 10 µM (UO-31): 49%; inhibition at 10 µM (MDA-MB-468): 89.4%; inhibition at 10 µM (HT29): 80.9%; inhibition at 10 µM (OVCAR-5): 92.5%
